Patent EP4775208A1, “USE OF PRMT5 INHIBITOR IN TREATMENT OF TUMORS OR CANCERS” (Apeiron Therapeutics (Hong Kong) Ltd., priority 2023, dated 2025)

Molecular target: hERG ion channel (Homo sapiens, UniProt Q12809)
Test: hERG ion channel inhibition experiment (manual patch clamp, HEK293)
Assay type: cell-based
Conditions: HEK293 cells stably expressing hERG, n=2
Experimental: III. hERG Ion Channel Inhibition Experiment
The compounds used in this experiment are specific embodiments of the present invention, with reference to compound AMG473 as an example from Amgen's patent WO 2022/169948A1, identified as example 473.
2. Cell Line and Cell Culture
Stably expressing hERG ion channel HEK293 cell line (Catalog: K1236) was purchased from Invitrogen. This cell line was cultured in a medium containing 85% DMEM, 10% dialyzed fetal bovine serum, 0.1 mM non-essential amino acid solution, 100 U/mL penicillin-streptomycin solution, 25 mM HEPES, 5 µg/mL blasticidin, and 400 µg/mL geneticin. […]
• 1) Place glass slides containing HEK293 cells in the perfusion chamber of the micro-manipulation station. • 2) Under an Olympus IX71 or IX73 inverted microscope, position suitable cells in the central field of view using a ×10 objective. […] The peak of the tail current represents the size of the hERG current. • 9) The hERG current induced by the test compound is continuously recorded for 120 seconds before administration to assess the stability of the tested cells in producing hERG currents. […] Record the last 5 hERG current values after the recorded current stabilizes, and take their average as the final current value at a specific concentration. […]

Sequence of hERG ion channel (Q12809 whole entry): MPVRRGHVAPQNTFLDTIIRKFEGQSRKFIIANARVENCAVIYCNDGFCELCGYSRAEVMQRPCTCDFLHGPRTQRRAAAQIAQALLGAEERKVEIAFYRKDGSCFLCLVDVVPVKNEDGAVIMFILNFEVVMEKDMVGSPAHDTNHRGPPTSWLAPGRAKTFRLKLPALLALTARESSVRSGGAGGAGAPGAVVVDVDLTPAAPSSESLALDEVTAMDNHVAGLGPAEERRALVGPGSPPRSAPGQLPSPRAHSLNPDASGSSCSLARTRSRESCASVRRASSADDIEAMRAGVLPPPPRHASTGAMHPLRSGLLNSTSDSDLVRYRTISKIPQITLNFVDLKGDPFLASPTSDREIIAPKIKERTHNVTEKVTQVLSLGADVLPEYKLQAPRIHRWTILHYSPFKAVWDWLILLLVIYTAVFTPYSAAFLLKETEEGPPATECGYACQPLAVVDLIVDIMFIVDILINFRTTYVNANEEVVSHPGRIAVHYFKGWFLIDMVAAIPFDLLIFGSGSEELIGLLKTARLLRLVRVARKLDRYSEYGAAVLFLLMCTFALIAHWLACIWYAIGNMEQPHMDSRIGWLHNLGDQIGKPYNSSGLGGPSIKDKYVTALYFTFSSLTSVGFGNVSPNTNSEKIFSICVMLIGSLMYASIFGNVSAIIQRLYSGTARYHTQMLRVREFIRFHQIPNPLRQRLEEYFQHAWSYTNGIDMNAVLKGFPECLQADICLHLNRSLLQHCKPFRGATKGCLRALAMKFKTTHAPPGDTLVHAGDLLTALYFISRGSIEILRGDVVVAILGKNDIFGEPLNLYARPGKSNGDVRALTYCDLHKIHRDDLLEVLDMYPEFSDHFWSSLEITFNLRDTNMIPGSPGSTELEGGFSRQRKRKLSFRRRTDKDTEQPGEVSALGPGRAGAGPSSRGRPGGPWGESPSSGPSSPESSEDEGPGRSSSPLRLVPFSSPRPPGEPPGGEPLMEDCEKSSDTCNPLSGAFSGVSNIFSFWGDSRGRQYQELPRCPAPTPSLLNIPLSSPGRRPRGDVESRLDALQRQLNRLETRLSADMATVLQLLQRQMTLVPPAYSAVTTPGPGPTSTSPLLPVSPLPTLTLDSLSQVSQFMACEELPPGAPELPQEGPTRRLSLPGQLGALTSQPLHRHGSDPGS

(S)-4-amino-7-fluoro-N-methyl-N-(6-(triflu oromethyl)-2,3-dihydr obenzofuran-3-yl)imi dazo[1,5-a]quinoxalin e-8-carboxamide [Example 29]
IC50: 11.4 µM
